Data as given in patent publication US20020150629A1, “Zinc-supplementary compositions for oral administration” (priority 2000, published 2002).

Assay: Bioavailability of zinc after administration to the duodenum of rats (plasma zinc AUC vs intravenous zinc acetate)
Details: for absorption promoting action (in words): 10 mg/kg
Description: Wistar rats of 8 weeks age were used in this experiment. The rats were fasted for 24 hours before administration of zinc acetate alone, a mixture of zinc acetate and a dipeptide listed in Table 1 at a molar ratio of dipeptide to zinc of 1:1, or a complex of zinc and L- or D-carnosine at a molar ratio of dipeptide to complex of 1:1. Each test composition was administered to the duodenum of ether-anesthetized rat as a solution or suspension in physiological saline. The dose of the composition was 10 mg/kg body weight as zinc in each case. Blood samples were collected before administration, and 1,3,5 and 7 hours after the administration. Plasma levels of zinc were determined using Zn Test Wako Kit (available from Wako Pure Chemical Industries, Ltd.). […] The bioavailability (BA) of zinc was calculated by the above comparison.
Using the same method as above, the bioavailability of zinc was determined at varying molar ratios of L-carnosine to zinc from zero to 30. The results are shown in FIG. 1 of the accompanying drawings.
The dose of a 1:1 molar mixture of L-carnosine and zinc acetate was varied from 3 mg/kg to 100 mg/kg in terms of zinc. Analogous to Part 1, AUCs and bioavalabilities were determined and compared with those of administration of zinc acetate alone. The results are shown in FIG. 2 of the accompanying drawing.

Compound | BA (%) bioavailability of zinc (rat, in vivo) [%] | absorption promoting action (in words) (rat, in vivo) | other results
CC(=O)[O-].CC(=O)[O-].[Zn+2] [Zinc acetate] | – | – | BA (%) bioavailability of zinc (fasted Wistar rats, administered to the duodenum, 10 mg/kg as zinc, dipeptide:zinc 1:1, AUC up to 7 hours vs i.v. zinc acetate 1 mg/kg): 8.6 ± 0.3%
D-carnosine zinc complex | 6.7 ± 0.8 | – | –
NCCC(=O)N[C@@H](Cc1cnc[nH]1)C(=O)O [L-carnosine, N-β-alanyl-L-histidine] | – | exhibited a similar absorption promoting action | bioavailability of zinc at varying molar ratios of L-carnosine to zinc (FIG. 1) (rat, in vivo): increased with increase in the molar ratio
L-carnosine zinc complex | 11.7 ± 0.4 | – | –
NCCC(=O)N[C@H](Cc1cnc[nH]1)C(=O)O [D-carnosine] | – | not | –
